# Read-outs that look alike come from different tables or passages of the source.
# Legend:
# [1] = Stability of Ia (retention of activity); format: physicochemical
# Description: Further, it is stable when subjected to direct sunlight for at least 10 hours. Ia is stable at a pH 2 for 3 days, but unstable at pH 12.
# Alternaria alternata = assay: Fungal growth inhibition assay, Alternaria alternata; format: cell-based
# Description: (§1) Mutants of the Bacillus thuringiensis subsp. kurstaki strain which produce the factor are identified using fungal agar plates of Septoria nodorum and Alternaria alternata.
# (§2) The two fungi are grown on PDA (potato dextrose agar) plates at 26° C. for 10-14 days until sufficient sporulation is obtained. Alternaria alternata is incubated in alternating UV light and darkness (12 hrs. each). The spores are removed from the plates and suspended in sterile water. Septoria nodorum spores are filtered through a sterile G1 filter. The Alternaria alternata spore concentration is adjusted to approximately 2×10^5 per ml and the Septoria nodorum spore concentration is adjusted to approximately 2×10^6 per ml using a Burker-Turk or Fuchs-Rosenthal counter. Samples of 1.5 ml of the spore suspension are then mixed with 1.5 ml of sterile 40% glycerol in water, frozen for 1 day at −20° C. and thereafter stored at −80° C. until use.
# (§3) Test plates for the factor are prepared by mixing at 46° C. a 1.5 ml spore sample (as described above) with 115 ml of antibiotic agar medium No. 2 (25.5 g per liter) comprising streptomycin at a final concentration of 100 μg per ml, and transferring the mixture to sterile plastic trays (Nunc No. 101875). After the agar has solidified, […] holes are punched into the agar (120 holes per tray).
# (§4) Samples of a culture are serially diluted in 100 μg of streptomycn per ml of sterile water and 10 μl of the diluted samples are dispensed into the trays prepared as described above. The trays are incubated at 26° C. for 2 days. Dilutions of the factor are also run as a positive control.
# (§5) The sensitivity of the fungal growth inhibition assay is in the range of 0.05 gram of the factor per liter (barely visible) and 0.1 gram of the factor per liter (clear zone) for both fungi.
# Septoria nodorum = assay: Fungal growth inhibition assay, Septoria nodorum; format: cell-based
# Description: as §1, §2, §3, §4, §5
# Solubility of Ia = format: physicochemical
# Excerpt: The active compound is found to be water soluble but is not soluble in organic solvents. […] A DEPT experiment determined that there are three quaternary carbons (C), seven methines (CH), three methylenes (CH2) and no methyl groups (CH3). Using proton coupling experiments such as 1-D decoupling and COSY, one large spin system containing eight carbons is identified. In addition, a smaller spin system consisting of two carbons is present. A carbon proton correlation experiment (HMBC) enabled assignment of each proton resonance in the molecule to its attached carbon.
# Spodoptera exigua = format: in vivo; set-up: key to Stunt Score: 4.0 = untreated control; 3.0 = 75% size of untreated control; 2.0 = 50% size of untreated control; 1.0 = 25% size of untreated control; 0.0 = no growth or size unchanged from start of experiment
# Description: Activity is monitored by a Spodoptera exigua micro-bioassay, and purity is determined by capillary electrophoresis. […] The trays containing the various samples are air dried. Two to four 2nd or early 3rd instar Spodoptera exigua are added to the wells containing the dried sample. The wells are sealed with mylar poked with holes and are incubated for 2-3 days at 30° C. Degree of stunting and percent mortality are then recorded. Typically, 5 replicate wells are run for each sample.
# Phytophthora medicaginis = details: U.S. Pat. Nos. 4,877,738 and 4,878,936; cited from earlier work
compound,measurement,setting,value
NC(=O)NCC(NC(=O)C(O)C(O)C(N)C(O)CC(O)C(N)CO)C(N)=O (stereo not shown) [Ia],stability upon autoclaving,[1]; autoclaving (>190° C.),loses all activity
same,stability upon boiling,[1]; boiling for 5 minutes,stable
same,time stable in direct sunlight,[1]; direct sunlight,at least 10 hours
same,stability to periodic acid or concentrated HCl,[1]; exposed to periodic acid or concentrated HCl,lose all activity
same,stability at pH 2,[1]; pH 2 for 3 days,stable
same,stability at pH 12,[1]; pH 12,unstable
same,effect on fungal growth,Alternaria alternata; agar plates,inhibits growth
same,concentration giving barely visible inhibition (assay sensitivity),"Alternaria alternata; barely visible, 26° C., 2 days",0.05 gram of the factor per liter
same,concentration giving clear zone (assay sensitivity),"Alternaria alternata; clear zone, 26° C., 2 days",0.1 gram of the factor per liter
same,effect on fungal growth,Septoria nodorum; agar plates,inhibits growth
same,concentration giving barely visible inhibition (assay sensitivity),"Septoria nodorum; barely visible, 26° C., 2 days",0.05 gram of the factor per liter
same,concentration giving clear zone (assay sensitivity),"Septoria nodorum; clear zone, 26° C., 2 days",0.1 gram of the factor per liter
same,solubility in organic solvents,Solubility of Ia; organic solvents,not soluble
same,solubility in water,Solubility of Ia; water,water soluble
same,Stunt Score,"Spodoptera exigua; Ia + alone, Bt protein None",4.0
same,effect on activity of B.t. subsp. kurstaki and aizawai crystal delta-endotoxin pesticidal proteins toward Spodoptera exigua,Spodoptera exigua; regardless of the form of the pesticidal proteins,potentiate
NC(=O)NCC(NC(=O)C(O)C(O)C(N)C(O)CC(O)C(N)CO)C(N)=O (stereo not shown) [zwittermicin A],effect on growth of the plant pathogen Phytophthora medicaginis,Phytophthora medicaginis,inhibits the growth
same,effect on infection of alfalfa,Phytophthora medicaginis,reduces the infection
CryIA(c): Bacillus thuringiensis CryIA(c) delta-endotoxin protein purified from BIOBIT FC,Stunt Score,"Spodoptera exigua; Bt protein 3 μg/ml, Ia +",1.0 (1.0 = 25% size of untreated control)
same,Stunt Score,"Spodoptera exigua; Bt protein 15 μg/ml, Ia +",0.0
same,Stunt Score,"Spodoptera exigua; Bt protein 30 μg/ml, Ia −",4.0
same,concentration with Ia producing the same insect mortality/stunt score as protein alone,"Spodoptera exigua; full-length protein, equals 240 μg/ml of CryIA(c) alone",0.75 µg/mL
same,Stunt Score,"Spodoptera exigua; purified truncated Bt protein OD280 0.0006, Ia +",1.0 (1.0 = 25% size of untreated control)
same,Stunt Score,"Spodoptera exigua; purified truncated Bt protein OD280 0.0012, Ia +",1.0 (1.0 = 25% size of untreated control)
same,Stunt Score,"Spodoptera exigua; purified truncated Bt protein OD280 0.0025, Ia +",2.0 (2.0 = 50% size of untreated control)
same,Stunt Score,"Spodoptera exigua; purified truncated Bt protein OD280 0.005, Ia +",0.0
same,Stunt Score,"Spodoptera exigua; purified truncated Bt protein OD280 0.020, Ia +",0.0
same,OD280 in combination with Ia giving the same stunt score as protein alone,"Spodoptera exigua; truncated protein, equals OD280 of 0.075 tested alone",0.0006 OD280

# Source: patent publication US6844182B2, “Mutants which produce a potentiator of bacillus pesticidal activity” (priority 1992, dated 2005)
